Assay results from US11827637B2, “Azaindole derivatives and their use as ERK kinase inhibitors” (AGV Discovery, priority 2022, dated 2023).

Columns and labels:
[1] = target: T1, ERK2 (MAPK1) (Homo sapiens, UniProt P28482); assay: ERK2 (MAPK1) enzymatic assay (Z′-Lyte); format: biochemical
T1 construct: purchased Life technologies
Experimental: To assess the capacity of compounds to inhibit ERK2 enzymatic activity, Z′-Lyte biochemical assay from Life technologies was used according to manufacturer's instructions. Briefly, black 384-well plates containing 100 nl of 100× compound solution in 100% DMSO, 2.4 μl kinase buffer, 5 μl 2×MAPK1 (ERK2)/Ser/Thr 03 mixture and 2.5 μl 4×ATP solution were used. Plates were shaken for 30 seconds and incubated for 60 minutes at room temperature. Then, 5 μl of a 1:1024 dilution of Development Reagent A was added. Plates were shaken for 30 seconds and incubated for 60 minutes at room temperature. A plate reader was used to read fluorescence. […] Kinase buffer consisted of 50 mM HEPES pH 7.5, 0.01% BRIJ-35, 10 mM MgCl2, 1 mM EGTA.

[2] = target: 58 kinases; assay: Kinase panel (Z′-Lyte, Adapta/Lanthascreen), 58 kinases; format: biochemical; details: for Kinase panel @500 nM hits > 50%: number of the 58 kinases inhibited more than 50% at 500 nM; for Kinase panel @500 nM hits > 80%: number of the 58 kinases inhibited more than 80% at 500 nM
Experimental: To assess the kinase selectivity of compounds, Z′-Lyte biochemical assay, and Adapta/Lanthascreen binding assays from Life technologies were used according to manufacturer's instructions. Pourcentages of inhibition at 500 nM of test compounds were performed towards 58 kinases: ABL1, ACVR1B (ALK4), AKT2 (PKB beta), AMPK (A1/132/G3), AURKA (Aurora A), AXL, BRAF, BTK, CAMK2B (CaMKII beta), CDK2/cyclin A, CHEK1 (CHK1), CLK1, CSNK1A1 (CK1 alpha 1), CSNK2A1 (CK2 alpha 1), DAPK3 (ZIPK), DYRK1A, EGFR (ErbB1), EPHB3, ERBB2 (HER2), FGFR2, FLT3, FRAP1 (mTOR), GSK3B (GSK3 beta), IGF1R, IKBKB (IKK beta), INSR, IRAK4, JAK2, KDR (VEGFR2), KIT, LCK, MAP2K1 (MEK1), MAPK10 (JNK3), MAPK11 (p38 beta), MAPKAPK2, MARK2, MET (cMet), NEK2, NTRK1 (TRKA), PAK2 (PAK65), PDGFRB (PDGFR beta), PDK1 Direct, PHKG2, PIK3CA/PIK3R1 (p110 alpha/p85 alpha), PIM1, PLK1, PRKACA (PKA), PRKCA (PKC alpha), PTK2 (FAK), RET, ROCK1, RPS6KA1 (RSK1), RPS6KB1 (p70S6K), SRC, STK3 (MST2), SYK, TEK (Tie2), TYRO3 (RSE).

[3] = system: A375 cells (malignant melanoma); assay: Cell line proliferation assay (MTT, A375); format: cell-based; details: Homo sapiens, A-375, 72 hours
Experimental: A cell line assay was used to determine the capacity of compounds to inhibit cell proliferation. A375 cells (malignant melanoma) were grown to near 80% confluence and seeded at 3000 cells per 100 μl per well in DMEM with 10% FBS in 96-well flat bottom plates. Cells were incubated for 24 hours at 37° C. under 5% CO2. 100 μl compound solutions were added to cells and incubated for 72 hours at 37° C. Total volume of media was 200 μl per well. Compounds were screened in 0.15% DMSO (final) using 10 titration points in duplicate. Negative control wells consisted of vehicle only (0.15% DMSO in 10% FBS DMEM). After 72 hours of compound treatment, SDS 1% (final) was added to positive control wells for 15 minutes at 37° C. Then, medium was discarded and replaced by 100 μl per well of a MTT solution (3-[4.5-dimethylthiazol-2-yl]-2.5-diphenyltetrazolium bromide) (Sigma, Cat #M5655) at 0.5 mg/ml in 10% FBS DMEM. Cells were incubated for 4 hours at 37° C. MTT reaction was stopped and homogenized by the addition of 100 μl per well of SDS 10% 0.01M HCl. After 16 hours at 37° C., absorbance was measured at 570 nm in a Bio-Tek plate reader (PowerWave HT). […] Analysis was performed using GraphPad Prism software.

T1 sequence (P28482 whole entry): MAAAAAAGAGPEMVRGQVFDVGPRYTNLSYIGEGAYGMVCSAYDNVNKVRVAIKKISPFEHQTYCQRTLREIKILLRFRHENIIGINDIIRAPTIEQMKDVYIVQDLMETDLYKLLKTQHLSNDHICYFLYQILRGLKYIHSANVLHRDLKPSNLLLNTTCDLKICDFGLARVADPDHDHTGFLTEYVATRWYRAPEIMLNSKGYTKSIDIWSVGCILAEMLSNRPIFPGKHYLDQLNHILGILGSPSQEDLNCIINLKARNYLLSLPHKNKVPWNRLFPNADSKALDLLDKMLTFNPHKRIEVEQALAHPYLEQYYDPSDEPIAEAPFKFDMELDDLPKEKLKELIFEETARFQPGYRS

Compound	IC50 [3] [nM]	other results
CN(C)CC(c1cc(F)cc(Cl)c1)n1ccc(-c2c[nH]c3ncc(N4CCOCC4)cc23)cc1=O (racemic) [Compound no9 (racemate), 1-(1-(3-Chloro-5-fluorophenyl)-2-(dimethylamino)ethyl)-4-(5-morpholino-1H-pyrrolo[2,3-b]pyridin-3-yl)pyridin-2(1H)-one]		IC50 [1]: 7.7 nM
CN(C)CC(c1cc(F)cc(I)c1)n1ccc(-c2c[nH]c3ncc(N4CCOCC4)cc23)cc1=O (racemic) [Compound no10 (racemate), 1-(2-(dimethylamino)-1-(3-fluoro-5-iodophenyl)ethyl)-4-(5-morpholino-1H-pyrrolo[2,3-b]pyridin-3-yl)pyridin-2(1H)-one]		IC50 [1]: 5.1 nM
NC[C@H](c1cccc(Cl)c1)n1ccc(-c2c[nH]c3ncc(N4CCOCC4)cc23)cc1=O [Comparative compound A (S), (S)-1-(2-amino-1-(3-chlorophenyl)ethyl)-4-(5-morpholino-1H-pyrrolo[2,3-b]pyridin-3-yl)pyridin-2(1H)-one, reference compound]		Kinase panel @500 nM hits > 50% [2]: 26/58; Kinase panel @500 nM hits > 80% [2]: 15/58
CNC[C@H](c1ccc(Cl)c(Cl)c1)n1ccc(-c2c[nH]c3ncc(N4CCOCC4)cc23)cc1=O [Comparative compound B (S), (S)-1-(1-(3,4-dichlorophenyl)-2-(methylamino)ethyl)-4-(5-morpholino-1H-pyrrolo[2,3-b]pyridin-3-yl)pyridin-2(1H)-one, reference compound]		Kinase panel @500 nM hits > 50% [2]: 20/58; Kinase panel @500 nM hits > 80% [2]: 10/58
CN(C)C[C@H](c1cc(F)cc(Cl)c1)n1ccc(-c2c[nH]c3ncc(N4CCOCC4)cc23)cc1=O [Compound no9 (S), (S)-1-(1-(3-chloro-5-fluorophenyl)-2-(dimethylamino)ethyl)-4-(5-morpholino-1H-pyrrolo[2,3-b]pyridin-3-yl)pyridin-2(1H)-one]	188	
CN(CC(F)F)C[C@H](c1cccc(Cl)c1)n1ccc(-c2c[nH]c3ncc(N4CCOCC4)cc23)cc1=O [Compound no11 (S), (S)-1-(1-(3-chlorophenyl)-2-((2,2-difluoroethyl)(methyl)amino)ethyl)-4-(5-morpholino-1H-pyrrolo[2,3-b]pyridin-3-yl)pyridin-2(1H)-one]	229	
COCCN(C)C[C@H](c1cccc(Cl)c1)n1ccc(-c2c[nH]c3ncc(N4CCOCC4)cc23)cc1=O [Compound no13 (S), (S)-1-(1-(3-chlorophenyl)-2-((2-methoxyethyl)(methyl)amino)ethyl)-4-(5-morpholino-1H-pyrrolo[2,3-b]pyridin-3-yl)pyridin-2(1H)-one]	262	
CN(C[C@H](c1cccc(Cl)c1)n1ccc(-c2c[nH]c3ncc(N4CCOCC4)cc23)cc1=O)C1CC1 [Compound no14 (S), (S)-1-(1-(3-chlorophenyl)-2-(cyclopropyl(methyl)amino)ethyl)-4-(5-morpholino-1H-pyrrolo[2,3-b]pyridin-3-yl)pyridin-2(1H)-one]	420	
CN(CC1CC1)C[C@H](c1cccc(Cl)c1)n1ccc(-c2c[nH]c3ncc(N4CCOCC4)cc23)cc1=O [Compound no16 (S), (S)-1-(1-(3-chlorophenyl)-2-((cyclopropylmethyl)(methyl)amino)ethyl)-4-(5-morpholino-1H-pyrrolo[2,3-b]pyridin-3-yl)pyridin-2(1H)-one]	162	
CN(C)C[C@H](c1cc(F)cc(F)c1)n1ccc(-c2c[nH]c3ncc(N4CCOCC4)cc23)cc1=O [Compound no18 (S), (S)-1-(1-(3,5-difluorophenyl)-2-(dimethylamino)ethyl)-4-(5-morpholino-1H-pyrrolo[2,3-b]pyridin-3-yl)pyridin-2(1H)-one]	371	
CN(C)C[C@H](c1cccc(Cl)c1)n1cc(F)c(-c2c[nH]c3ncc(N4CCOCC4)cc23)cc1=O [Compound no19 (S), (S)-1-(1-(3-chlorophenyl)-2-(dimethylamino)ethyl)-5-fluoro-4-(5-morpholino-1H-pyrrolo[2,3-b]pyridin-3-yl)pyridin-2(1H)-one]	303	
Cc1cc(-c2c[nH]c3ncc(N4CCOCC4)cc23)cc(=O)n1[C@H](CN(C)C)c1cccc(Cl)c1 [Compound no20 (S), (S)-1-(1-(3-chlorophenyl)-2-(dimethylamino)ethyl)-6-methyl-4-(5-morpholino-1H-pyrrolo[2,3-b]pyridin-3-yl)pyridin-2(1H)-one]	825	
CN(C)C[C@H](c1cccc(Cl)c1)n1ccc(-c2c[nH]c3ncc(N4CCOC(C(F)(F)F)C4)cc23)cc1=O (stereo partly drawn) [Compound no21 (S), 1-((S)-1-(3-chlorophenyl)-2-(dimethylamino)ethyl)-4-(5-(2-(trifluoromethyl)morpholino)-1H-pyrrolo[2,3-b]pyridin-3-yl)pyridin-2(1H)-one]	199	
O=c1cc(-c2c[nH]c3ncc(N4CCOCC4)cc23)ccn1[C@H](CN1CC1)c1cccc(Cl)c1 [Compound no24 (S), (S)-1-(2-(aziridin-1-yl)-1-(3-chlorophenyl)ethyl)-4-(5-morpholino-1H-pyrrolo[2,3-b]pyridin-3-yl)pyridin-2(1H)-one]	96	

Further lines, with some results ahead:

IC50 [3] [nM]	Compound	other results
42	CN(C)C[C@H](c1cccc(I)c1)n1ccc(-c2c[nH]c3ncc(N4CCOCC4)cc23)cc1=O [Compound no6 (S), (S)-1-(2-(dimethylamino)-1-(3-iodophenyl)ethyl)-4-(5-morpholino-1H-pyrrolo[2,3-b]pyridin-3-yl)pyridin-2(1H)-one]	IC50 [1]: 2.4 nM
116	CN(C)C[C@H](c1cc(F)cc(I)c1)n1ccc(-c2c[nH]c3ncc(N4CCOCC4)cc23)cc1=O [Compound no10 (S), (S)-1-(2-(dimethylamino)-1-(3-fluoro-5-iodophenyl)ethyl)-4-(5-morpholino-1H-pyrrolo[2,3-b]pyridin-3-yl)pyridin-2(1H)-one]	
7	CN(CC#N)C[C@H](c1cccc(Cl)c1)n1ccc(-c2c[nH]c3ncc(N4CCOCC4)cc23)cc1=O [Compound no12 (S), (S)-2-((2-(3-chlorophenyl)-2-(4-(5-morpholino-1H-pyrrolo[2,3-b]pyridin-3-yl)-2-oxopyridin-1(2H)-yl)ethyl)(methyl)amino)acetonitrile]	
51	CCN(C)C[C@H](c1cccc(Cl)c1)n1ccc(-c2c[nH]c3ncc(N4CCOCC4)cc23)cc1=O [Compound no15 (S), (S)-1-(1-(3-chlorophenyl)-2-(ethyl(methyl)amino)ethyl)-4-(5-morpholino-1H-pyrrolo[2,3-b]pyridin-3-yl)pyridin-2(1H)-one]	IC50 [1]: 3.5 nM
103	CN(C)C[C@H](c1ccc(F)c(F)c1)n1ccc(-c2c[nH]c3ncc(N4CCOCC4)cc23)cc1=O [Compound no17 (S), (S)-1-(1-(3,4-difluorophenyl)-2-(dimethylamino)ethyl)-4-(5-morpholino-1H-pyrrolo[2,3-b]pyridin-3-yl)pyridin-2(1H)-one]	IC50 [1]: 2.7 nM
156	CN(C)C[C@H](c1cccc(C#N)c1)n1ccc(-c2c[nH]c3ncc(N4CCOCC4)cc23)cc1=O [Compound no25 (S), (S)-3-(2-(dimethylamino)-1-(4-(5-morpholino-1H-pyrrolo[2,3-b]pyridin-3-yl)-2-oxopyridin-1(2H)-yl)ethyl)benzonitrile]	
15	CN(C)C[C@H](c1cccc(C(F)(F)F)c1)n1ccc(-c2c[nH]c3ncc(N4CCOCC4)cc23)cc1=O [Compound no26 (S), (S)-1-(2-(dimethylamino)-1-(3-(trifluoromethyl)phenyl)ethyl)-4-(5-morpholino-1H-pyrrolo[2,3-b]pyridin-3-yl)pyridin-2(1H)-one]	
